We go through 2 molecules from patent US12673032B2, “Exploiting estrogen receptor beta and TP53 interaction as a new therapeutic strategy for cancer” (Health Research, Inc., priority 2018, dated 2026).

Where two headings read alike, the source gives them in different places.

For test [1], the system named is MDA-MB-231 cells expressing mutant p53. The test is described as follows: Doxorubicin cell-killing IC50 in TNBC cells expressing mutant p53, with or without tamoxifen. In kind it is cell-based. Conditions: for IC50: Homo sapiens.
Test [2] relates to TP73 recruitment to the PUMA gene promoter. The experiment in a line: qChIP for BBC3 (PUMA) promoter occupancy by TP73. In kind it is cell-based. The note with it: MDA-MB-231 cells; 5 μM for 24 hours. Here is the method:
FIGS. 17A-C. […] (A) Cells were treated with 5 μM TAM for 24 hours. After 24 hours, BBC3 promoter occupancy by TP73 was determined using qChIP in MDA-MB-231 cells. (B) SK-BR-3 cells were transfected with si-NS or si-ESR2 #2 for 48 hours and treated with or without 5 μM TAM for 24 hours. After 72 hours, expression of TP53 target genes (CDKN1A and BBC3) was determined using qRT-PCR. (C) SK-BR-3 cells were transfected with si-NS or si-TP73 for 48 hours and treated with or without 5 μM TAM for 24 hours. After 72 hours, expression of TP53 target genes (CDKN1A and BBC3) was determined using qRT-PCR. Error bars are represented as mean SD of three independent experiments. All ‘p’ values were determined by two tailed student t-test. qRT-PCR=Quantitative real time polymerase chain reaction. si-NS=non-specific siRNA; si-ESR2 #2=ESR2 specific siRNA; si-TP73=TP73 specific siRNA; VEH=Vehicle; TAM=4-Hydroxytamoxifen.
Chromatin immunoprecipitation (ChIP) assay. […] Immunoprecipitated chromatin samples were analyzed through real-time q-PCR as stated above. A region downstream of CDKN1A/p21 promoter sequence was used as endogenous control for the relative quantitation of immunoprecipitated chromatin fragments (Details of the primers are provided in Table 1). The promoter occupancy by transcription factor (s) of interest was analyzed as qRT-PCR.

For the molecule `COc1cccc2c1C(=O)c1c(O)c3c(c(O)c1C2=O)C[C@@](O)(C(=O)CO)C[C@@H]3O[C@H]1C[C@H](N)[C@H](O)[C@H](C)O1` [doxorubicin], the IC50 in test [1] (MDA-MB-231, read-out: IC50 of doxorubicin with addition of tamoxifen) was 150 nM; in test [1] (read-out: IC50 (drug concentration required to kill 50% cells) of doxorubicin, MDA-MB-231 expressing mutant p53, doxorubicin alone), 1050 nM. In addition, the “Decrease of doxorubicin IC50 on addition of tamoxifen” value in test [1] (MDA-MB-231 expressing mutant p53) is recorded as “about 7 fold”.

With 4-hydroxy tamoxifen, in test [2], the “recruitment of TP73 to the PUMA gene promoter (qChIP)” value is “enhanced”.
